Laboratory results reported in patent US4370327A, “Cephalosporins and pharmaceutical compositions” (Boehringer Ingelheim GmbH, priority 1980, dated 1983).
Values after ≈ are worked out from the molar mass of the structure shown.

How the values were obtained:
[1] = tested on: Klebsiella pneumoniae 1082 E (β-lactamase carrier); test: serial dilution test in the microtiter system, minimum inhibitory concentration; assay type: cell-based; settings: Klebs. pneum. 1082 E, 37° C., 18 to 20 hours
Description: (§1) The tests were performed using the serial dilution test in the microtiter system. The effect of the text compounds on bacteriostasis was examined at the following concentrations: 128, 64, 32, 16, 8, 4, 2, 1, 0.5, 0.25, 0.12, 0.06, 0.03, and 0.015 μg/ml. The nutrient medium consisted of 10 gm of peptone, 8 g of meat extract oxoid, 3 g of sodium chloride, and 2 g of sec. sodium phosphate diluted with distilled water to […] (pH 7.2-7.4). The age of the primary cultures was approximately 20 hours. The standardization of the bacteria suspension was effected using a photometer according to the method of Eppendorf (test tube .phi. 14 mm, filter 546 nm), using for comparison a barium sulfate suspension formed by the addition of 3.0 ml of 1% barium chloride solution to 97 ml of 1% sulfuric acid. After the standardization, the test pathogens were diluted further in a ratio of 1:1500 with a common salt solution.
(§2) Sixteen milligrams of a particular test compound were put into a 10 ml measuring flask, and the flask was subsequently filled to the mark with solvent. Further dilutions in the series were made with distilled water or the appropriate solvent.
(§3) The cavities of the microtiter plates were filled sequentially with 0.2 ml of nutrient medium, 0.01 ml of the appropriate test compound solution, and then 0.01 ml of the standardized bacteria suspension. The bacteria were incubated at 37° C. for from 18 to 20 hours. Control tests using only the solvent were carried out simultaneously.
(§4) The measurement was carried out macroscopically to determine the minimum inhibitory concentration (the lowest, still bacteriostatically effective concentration).
(§5) The following test organisms were used:
(§6) Staphylococcus aureus SG 511, Escherichia coli ATCC 11 775, Pseudomonas aeruginosa Hamburgensis and Pseudomonas aeruginosa Walter, Serratia marcescens ATCC 13 880, Klebsiella pneumoniea ATCC 10 031 and BC 6, Proteus mirabilis BC 17, Proteus rettgeri BC 7, Enterobacter cloaceae ATCC 13 047, and E. coli R+TEM (β-lactamase carrier), and Klebsiella pneumoniae 1082 E (β-lactamase carrier).
(§7) Representative compounds of the compounds of Formula I were tested. Those representative compounds comprised sodium salts of compounds of Formula I wherein R, D, and Y had the meanings set forth in the following table: […]

[2] = tested on: Escherichia coli ATCC 11 775; test: as above; assay type: cell-based; settings: E. coli ATCC 11775, 37° C., 18 to 20 hours
Description: as §1, §2, §3, §4, §5, §6, §7

[3] = tested on: Enterobacter cloaceae ATCC 13 047; test: as above; assay type: cell-based; settings: Enterob. cloacae ATCC 13047, 37° C., 18 to 20 hours
Description: as §1, §2, §3, §4, §5, §6, §7

[4] = tested on: Staphylococcus aureus SG 511; test: as above; assay type: cell-based; settings: SG511, St. aureus SG 511, 37° C., 18 to 20 hours
Description: as §1, §2, §3, §4, §5, §6, §7

[5] = tested on: Pseudomonas aeruginosa Hamburgensis; test: as above; assay type: cell-based; settings: Pseud. aeru Hbg., 37° C., 18 to 20 hours
Description: as §1, §2, §3, §4, §5, §6, §7

[6] = tested on: Pseudomonas aeruginosa Walter; test: as above; assay type: cell-based; settings: Pseud. aeru Walter, 37° C., 18 to 20 hours
Description: as §1, §2, §3, §4, §5, §6, §7

[7] = tested on: Serratia marcescens ATCC 13 880; test: as above; assay type: cell-based; settings: Serr. marcesc. ATCC 13880, 37° C., 18 to 20 hours
Description: as §1, §2, §3, §4, §5, §6, §7

[8] = tested on: Proteus mirabilis BC 17; test: as above; assay type: cell-based; settings: BC17, Prot. mir. BC 17, 37° C., 18 to 20 hours
Description: as §1, §2, §3, §4, §5, §6, §7

[9] = tested on: Klebsiella pneumoniea ATCC 10 031; test: as above; assay type: cell-based, Klebsiella pneumoniae; settings: Klebs. pneum. ATCC 10031, 37° C., 18 to 20 hours
Description: as §1, §2, §3, §4, §5, §6, §7

[10] = tested on: Klebsiella pneumoniea BC 6; test: as above; assay type: cell-based, Klebsiella pneumoniae; settings: BC6, Klebs. pneum. BC 6, 37° C., 18 to 20 hours
Description: as §1, §2, §3, §4, §5, §6, §7

[11] = tested on: Prot. rettg. BC 17; test: as above; assay type: cell-based, Proteus rettgeri; settings: Providencia rettgeri, 37° C., 18 to 20 hours
Description: as §1, §2, §3, §4, §5, §6, §7

[12] = tested on: E. coli ATCC 11775; test: in vivo test against experimental intraperitoneal infection in mice; design: species or system E. coli in female mice of the NMRI strain; settings: Escherichia coli, ATCC11775, sc, 168 h; subcutaneous, one treatment 1 hour after i.p. infection, observation 7 days; read-out: ED50 (dose at which 50% of the animals survived)
Description: A number of the compounds according to the invention were tested in vivo against experimental infections in mice. E. coli ATCC 11775 was used as the pathogenic bacteria. An intraperitoneal infection was produced with 0.2 ml of a bacterial suspension (with 5% mucin), which corresponds to about 1.4×10^6 E. coli bacteria per mouse. Female mice of the NMRI strain were divided up into groups of 10 animals. Two groups were untreated, and the other groups were treated with various doses of the cephalosporins according to the invention, administered subcutaneously, to determine the ED50 (does at which 50% of the animals survived). One treatment was administered 1 hour after the infection.
In both cases, the observation period was 7 days.

Compound | MIC [2] [µg/mL] | MIC [3] [µg/mL] | MIC [4] [µg/mL] | MIC [5] [µg/mL] | MIC [6] [µg/mL] | MIC [7] [µg/mL] | MIC [8] [µg/mL] | MIC [9] [µg/mL] | MIC [10] [µg/mL] | MIC [11] [µg/mL] | MIC [1] [µg/mL] | ED50 [12] [mg/kg]
CCN1CCN(C(=O)N[C@@H](C(=O)N[C@@H]2C(=O)N3C(C(=O)O)=C(CSc4nnnn4C)CS[C@H]23)c2ccc(O)cc2)C(=O)C1=O [Cefaperazone (T 1551), reference compound] |  |  |  |  |  |  |  |  |  |  |  | 3.1
Cn1nnnc1SCC1=C(C(=O)O)N2C(=O)[C@@H](NC(=O)C(NC(=O)Nc3cnc(NC4CCC(O)CC4)nc3O)c3csc(N)n3)[C@H]2SC1 (some centres unmarked) [D] | 0.06 (≈ 0.0818 µM) | 0.25 (≈ 0.341 µM) | 2 (≈ 2.73 µM) | 16 (≈ 21.8 µM) | 16 (≈ 21.8 µM) | 0.25 (≈ 0.341 µM) | 0.12 (≈ 0.164 µM) | 0.06 (≈ 0.0818 µM) | 0.06 (≈ 0.0818 µM) | 0.12 (≈ 0.164 µM) | 32 (≈ 43.6 µM) | < 0.3
Cn1nnnc1SCC1=C(C(=O)O)N2C(=O)[C@@H](NC(=O)C(NC(=O)Nc3cnc(C4CC4)nc3O)c3csc(N)n3)[C@H]2SC1 (some centres unmarked) [A] | 0.03 (≈ 0.0454 µM) | 0.5 (≈ 0.757 µM) | 1 (≈ 1.51 µM) | 32 (≈ 48.4 µM) | 32 (≈ 48.4 µM) | 0.25 (≈ 0.378 µM) | 0.03 (≈ 0.0454 µM) | 0.03 (≈ 0.0454 µM) | 0.06 (≈ 0.0908 µM) | 0.12 (≈ 0.182 µM) | 32 (≈ 48.4 µM) | 0.5
Cn1nnnc1SCC1=C(C(=O)O)N2C(=O)[C@@H](NC(=O)C(NC(=O)Nc3cnc(NCc4ccc(O)cc4)nc3O)c3csc(N)n3)[C@H]2SC1 (some centres unmarked) [G] | 0.03 (≈ 0.0404 µM) | 0.12 (≈ 0.162 µM) | 0.5 (≈ 0.674 µM) | 16 (≈ 21.6 µM) | 8 (≈ 10.8 µM) | 0.12 (≈ 0.162 µM) | 0.03 (≈ 0.0404 µM) | 0.06 (≈ 0.0809 µM) | 0.03 (≈ 0.0404 µM) | 0.06 (≈ 0.0809 µM) | 16 (≈ 21.6 µM) | < 0.2
CC(=O)OCC1=C(C(=O)O)N2C(=O)[C@@H](NC(=O)C(NC(=O)Nc3cnc(Nc4ccc(S(N)(=O)=O)cc4)nc3O)c3csc(N)n3)[C@H]2SC1 (some centres unmarked) [Compound E] | 0.03 (≈ 0.0408 µM) | 0.25 (≈ 0.34 µM) | 0.5 (≈ 0.68 µM) | 16 (≈ 21.8 µM) | 8 (≈ 10.9 µM) | 0.12 (≈ 0.163 µM) | 0.12 (≈ 0.163 µM) | 0.06 (≈ 0.0817 µM) | 0.06 (≈ 0.0817 µM) | 0.12 (≈ 0.163 µM) | 32 (≈ 43.6 µM) | 0.1 to 0.3

Now from value to molecule, other results behind:

MIC [2] [µg/mL] | MIC [3] [µg/mL] | MIC [4] [µg/mL] | MIC [5] [µg/mL] | MIC [6] [µg/mL] | MIC [7] [µg/mL] | MIC [8] [µg/mL] | MIC [9] [µg/mL] | MIC [10] [µg/mL] | MIC [11] [µg/mL] | Compound | MIC [1] [µg/mL] | ED50 [12] [mg/kg]
4 (≈ 8.8 µM) | > 128 | 0.06 (≈ 0.132 µM) | > 128 | > 128 | > 128 | 4 (≈ 8.8 µM) | 1 (≈ 2.2 µM) | 2 (≈ 4.4 µM) | > 128 | Cc1nnc(SCC2=C(C(=O)O)N3C(=O)[C@@H](NC(=O)Cn4cnnn4)[C@H]3SC2)s1 [Cefazoline, reference compound] | > 128 | 
0.06 (≈ 0.0759 µM) | 0.5 (≈ 0.632 µM) | 1 (≈ 1.26 µM) | 16 (≈ 20.2 µM) | 16 (≈ 20.2 µM) | 0.5 (≈ 0.632 µM) | 0.25 (≈ 0.316 µM) | 0.12 (≈ 0.152 µM) | 0.12 (≈ 0.152 µM) | 0.25 (≈ 0.316 µM) | Cn1nnnc1SCC1=C(C(=O)O)N2C(=O)[C@@H](NC(=O)C(NC(=O)Nc3cnc(Nc4ccc(S(N)(=O)=O)cc4)nc3O)c3csc(N)n3)[C@H]2SC1 (some centres unmarked) [F] | 64 (≈ 80.9 µM) | 
0.06 (≈ 0.0865 µM) | 0.5 (≈ 0.721 µM) | 2 (≈ 2.88 µM) | 32 (≈ 46.1 µM) | 32 (≈ 46.1 µM) | 0.25 (≈ 0.36 µM) | 0.06 (≈ 0.0865 µM) | 0.25 (≈ 0.36 µM) | 0.12 (≈ 0.173 µM) | 0.25 (≈ 0.36 µM) | Cn1nnnc1SCC1=C(C(=O)O)N2C(=O)[C@@H](NC(=O)C(NC(=O)Nc3cnc(NCCCO)nc3O)c3csc(N)n3)[C@H]2SC1 (some centres unmarked) [C] | 32 (≈ 46.1 µM) | 
0.06 (≈ 0.0885 µM) | 0.25 (≈ 0.369 µM) | 1 (≈ 1.48 µM) | 32 (≈ 47.2 µM) | 32 (≈ 47.2 µM) | 0.25 (≈ 0.369 µM) | 0.06 (≈ 0.0885 µM) | 0.12 (≈ 0.177 µM) | 0.06 (≈ 0.0885 µM) | 0.12 (≈ 0.177 µM) | CCCNc1ncc(NC(=O)NC(C(=O)N[C@@H]2C(=O)N3C(C(=O)O)=C(CSc4nnnn4C)CS[C@H]23)c2csc(N)n2)c(O)n1 (some centres unmarked) [B] | 16 (≈ 23.6 µM) | 
8 (≈ 18.9 µM) | 32 (≈ 75.4 µM) | 1 (≈ 2.36 µM) | > 128 | > 128 | 8 (≈ 18.9 µM) | 0.5 (≈ 1.18 µM) | 2 (≈ 4.71 µM) | 4 (≈ 9.43 µM) | 2 (≈ 4.71 µM) | CO/N=C(\C(=O)N[C@@H]1C(=O)N2C(C(=O)O)=C(COC(N)=O)CS[C@H]12)c1ccco1 [Cefuroxime, reference compound] |  | > 100
